Reference: patent US11982671B2, “Identification of a T cell epitope of Prevotella copri that induces T cell responses in patients with rheumatoid arthritis” (priority 2016, dated 2024)

Experiments:
PBMC from RA patients [1] = test: IFN-γ/IL17 Double-Color ELISpot with GNS, FLNA and microbial peptides; assay type: cell-based, human; conditions: 24 NORA patients, single peptide 1 μM
Experimental: Enzyme-linked immunospot (ELISpot) T cell assay. A detailed description of the methods for isolation and identification of HLA-DR presented peptides is given in previous publications (19, 20). In the current study, all non-redundant HLA-DR-presented peptides identified from patient RA1 were synthesized (Mimotopes, Australia) and tested for reactivity in sets of 3 (1 μM of each peptide) with the patient's PBMC using IFN-γ ELISpot assays. […] For testing in larger numbers of patients and control subjects who would have a range of HLA-DR genotypes, the original peptides identified from the patient (shown in bold) and 3 additional promiscuous peptides that were predicted to bind>16 HLA-DR molecules were synthesized and HPLC-purified in the MGH Core Facility. The sequences of the GNS peptides were as follows: 47PNVVLLLTDDQDE59 (SEQ ID NO: 13), 222FEPFFMMIATPAPH235 (SEQ ID NO: 14), 451TYACVRTMSALWNLQ465 (SEQ ID NO: 15), 504NYRLMMLQSCSGPTC518 (SEQ ID NO: 16). The sequences of the FLNA peptides were as follows: 73DGLRLIALLEVLSQKK88 (SEQ ID NO: 17), 118SIKLVSIDSKAIVDG132 (SEQ ID NO: 18), 416VEVVIQDPMGQKG428 (SEQ ID NO: 19), 2446NPAEFVVNTSNAGAG2460 (SEQ ID NO: 20).
To assess microbial sequence homology with the GNS peptide 222FEPFFMMIATPAPH235 (SEQ ID NO: 21), the following microbial peptides were tested: 231KKPFFMMVAMNPPH245 (SEQ ID NO: 22), which was derived from the arylsulfatase protein of Prevotella sp. (WP_062433009.1) and 247DVPFFMMWTTPLPH261 (SEQ ID NO: 23), derived from the N-acetylgalactosamine-6-sulfatase of Parabacteroides sp. (WP_046148720.1).
To evaluate the microbial sequence homology for the FLNA peptide 2446NPAEFVVNTSNAGAG2460 (SEQ ID NO: 24), the following microbial peptides were tested: 133QGFVVKTANAGAL146 (SEQ ID NO: 25), which was derived from an uncharacterized protein of Prevotella sp. (WP_028897633.1) and 90ANFMINVSNAGAL103 (SEQ ID NO: 26), derived from an uncharacterized protein of Butyricimonas sp. (WP_065219401.1). The RA patients' PBMC were stimulated with the pool of peptides or single peptides, and analyzed for reactivity with a human IFN-γ/IL17 Double-Color ELISpot kit (Cellular Technology Limited). All peptides (1 μM) were tested in duplicate wells, as were positive (phytohemagglutinin) and negative (no antigen) control samples. After 5 days, cells were transferred to ELISpot plates coated with IFN-γ/IL17 antibodies, and incubated overnight. Images of wells were captured using ImmunoSpot series 3B analyzer, and spots were counted using ImmunoSpot software. A positive T cell response was defined as 3 standard deviations (SD) above the mean value of healthy control subjects.

PBMC from RA patients [2] = test: IFN-γ/IL-17 ELISpot T cell assay with Pc-p27 peptides; assay type: cell-based, human
From the text: Enzyme-linked immunospot (ELISpot) T cell assay. A detailed description of the methods for isolation and identification of HLA-DR presented peptides is given in Seward et al., 2011. In initial experiments in this study, one microbial peptide (^2KRIILILTVLLAMLGQVAY^20)(SEQ ID NO: 6) derived from a 27 kDa P. copri protein (WP_022121928.1) was identified from the PBMC of one RA patient. This P. copri peptide and 2 additional peptides from the same protein, which were predicted to be promiscuous T cell epitopes (^52DYRGYWTMRYQFDSATVS^69 (SEQ ID NO: 7), ^118EKINSLPTSSTGI^130 (SEQ ID NO: 8)), were synthesized and HPLC-purified in the Core Proteomics Laboratory at MGH. […] Cells were then transferred to Dual Color ELISpot plates coated with IFN-γ/IL17 antibodies (Cellular Technology Limited), and incubated overnight at 37° C. Images of wells were captured using ImmunoSpot series 3B analyzer, and spots were counted using ImmunoSpot software. A positive T cell response was defined as 3 standard deviations (SD) above the mean value of healthy subjects.

[3] = tested on: serum IgG and IgA autoantibodies; test: ELISA for serum IgG and IgA anti-GNS and anti-FLNA autoantibodies; assay type: binding, human; conditions: for patients with IgA antibody responses >3 SD above HC: 101 RA patients; for patients with IgG antibody responses >3 SD above HC: 101 RA patients (NORA and CRA), serum diluted 50-fold; for IgG antibody responses to citrullinated versus uncitrullinated protein: 46 RA patients, protein citrullinated in vitro with rhPAD4
Experimental: ELISA for serum IgG and IgA anti-GNS and anti-FLNA autoantibodies. ELISA plates were coated with 0.5 μg/ml of recombinant human N-acetylglucosamine-6-sulfatase (Novoprotein, Summit, N.J.) or filamin A (Novusbio, Littleton, Colo.) overnight at 4° C. Subsequent incubations and washes were performed at room temperature. After washing with phosphate buffered saline with 0.05% Tween-20 (PBST), the plates were blocked with blocking buffer (5% nonfat dry milk in PBST) for one hour. Afterwards, 100 μl of each patient's serum sample (diluted 50-fold) was added in duplicate wells for 1.5 hours, followed by horseradish-peroxidase (HRP)-conjugated goat anti-human IgG (sc-2453, Santa Cruz Biotech) or HRP-conjugated goat anti-human IgA (Bio-Rad, Hercules, Calif.), and then TMB substrate (BD, San Diego, Calif.). For inter-plate standardization, 2 control samples were included with each assay.
In vitro citrullination assay. Human recombinant N-acetylglucosamine-6-sulfatase (2 μg) or filamin A (2 μg) were incubated with rhPAD-4 (400 ng), generously provided by Maximilian Koenig from the laboratory of Felipe Andrade, in 1M Tris (pH 7.6) in presence of 200 mM CaCl2. A negative control reaction was performed substituting 200 mM CaCl2 with 200 mM EDTA. Incubation was performed at 37° C. for 3 hours. Protein citrullination was determined by anti-modified citrulline immunoblotting, according to the recommendations of the manufacturer (Millipore).

“ANFMINVSNAGAL (Butyricimonas sp. Marseille-P2440) [Butyricimonas peptide, peptide from an uncharacterized protein of Butyricimonas sp]” was tested, and the “patients with T cell reactivity >3SD above the mean values in HC” value (“patients … in HC” below) (PBMC from RA patients [1]) was 29%.

With “DVPFFMMWTTPLPH (Parabacteroides sp. HGS0025) [Parabacteroides peptide, peptide from N-acetylgalactosamine-6-sulfatase of Parabacteroides sp]” the “patients … in HC” value (PBMC from RA patients [1]) was 25%.

In the case of “FEPFFMMIATPAPH (listed as Homo sapiens) [GNS peptide, HLA-DR-presented self peptide from N-acetylglucosamine-6-sulfatase]”, the “patients … in HC” value (PBMC from RA patients [1]) is reported as 33%.

With “KKPFFMMVAMNPPH (Prevotella sp. DNF00663) [Prevotella peptide, peptide from arylsulfatase protein of Prevotella sp., homologous to the GNS peptide]” the “patients … in HC” value (PBMC from RA patients [1]) was 38%.

“KRIILILTVLLAMLGQVAY (listed as Prevotella copri) [Pc-p27 peptide 1]” was tested, and the “patients whose PBMC secreted IFN-γ >3 SD above the mean value of HC” value (PBMC from RA patients [2]; 40 RA patients (39 NORA + RA1), peptide 1 μM, 5 days) was 42%, the “T cell reactivity of PBMC from Lyme arthritis patients” value (PBMC from RA patients [2]; LA patients, peptide 1 μM) was “lacked reactivity” and the “patients with IFN-γ response, peptide with or without citrullination” value (PBMC from RA patients [2]; RA patients, FIG. 1D) was 44%. For the same molecule, the “IFN-γ secreted by patient RA1 T cells relative to background” value (PBMC from RA patients [2]; patient RA1 PBMC, peptide 1, 2 and 4 μM, background = no antigen) was greater than 3 times background.

With NPAEFVVNTSNAGAG [FLNA peptide] the “patients … in HC” value (PBMC from RA patients [1]) was 38%.

“QGFVVKTANAGAL (Prevotella sp. HUN102) [corresponding Prevotella peptide, peptide from an uncharacterized protein of Prevotella sp., homologous to the FLNA peptide]” was tested, and the “patients … in HC” value (PBMC from RA patients [1]) was 42%.

B1: GNS: recombinant human N-acetylglucosamine-6-sulfatase (Novoprotein) (protein)
chain: VFGVAAGTRRPNVVLLLTDDQDEVLGGMTPLKKTKALIGEMGMTFSSAYVPSALCCPSRASILTGKYPHNHHVVNNTLEGNCSSKSWQKIQEPNTFPAILRSMCGYQTFFAGKYLNEYGAPDAGGLEHVPLGWSYWYALEKNSKYYNYTLSINGKARKHGENYSVDYLTDVLANVSLDFLDYKSNFEPFFMMIATPAPHSPWTAAPQYQKAFQNVFAPRNKNFNIHGTNKHWLIRQAKTPMTNSSIQFLDNAFRKRWQTLLSVDDLVEKLVKRLEFTGELNNTYIFYTSDNGYHTGQFSLPIDKRQLYEFDIKVPLLVRGPGIKPNQTSKMLVANIDLGPTILDIAGYDLNKTQMDGMSLLPILRGASNLTWRSDVLVEYQGEGRNVTDPTCPSLSPGVSQCFPDCVCEDAYNNTYACVRTMSALWNLQYCEFDDQEVFVEVYNLTADPDQITNIAKTIDPELLGKMNYRLMMLQSCSGPTCRTPGVFDPGYRFDPRLMFSNRGSVRTRRFSKHLL
In the case of B1, the “patients with IgA antibody responses >3 SD above HC” value [3] is reported as 16%, the “patients with IgG antibody responses >3 SD above HC” value [3] is reported as 32% and the “positive IgG antibody responses in patients with other diseases and healthy controls” value ([3]; 106 patients with LA, SpA or CTD, 50 healthy control subjects) is reported as “none”.

B2: citrullinated GNS: recombinant GNS citrullinated in vitro with rhPAD-4 (protein)
chain: VFGVAAGTRRPNVVLLLTDDQDEVLGGMTPLKKTKALIGEMGMTFSSAYVPSALCCPSRASILTGKYPHNHHVVNNTLEGNCSSKSWQKIQEPNTFPAILRSMCGYQTFFAGKYLNEYGAPDAGGLEHVPLGWSYWYALEKNSKYYNYTLSINGKARKHGENYSVDYLTDVLANVSLDFLDYKSNFEPFFMMIATPAPHSPWTAAPQYQKAFQNVFAPRNKNFNIHGTNKHWLIRQAKTPMTNSSIQFLDNAFRKRWQTLLSVDDLVEKLVKRLEFTGELNNTYIFYTSDNGYHTGQFSLPIDKRQLYEFDIKVPLLVRGPGIKPNQTSKMLVANIDLGPTILDIAGYDLNKTQMDGMSLLPILRGASNLTWRSDVLVEYQGEGRNVTDPTCPSLSPGVSQCFPDCVCEDAYNNTYACVRTMSALWNLQYCEFDDQEVFVEVYNLTADPDQITNIAKTIDPELLGKMNYRLMMLQSCSGPTCRTPGVFDPGYRFDPRLMFSNRGSVRTRRFSKHLL
For B2, the “IgG antibody responses to citrullinated versus uncitrullinated protein” value [3] was “higher”.

B3: FLNA: recombinant human filamin A (Novusbio) (protein)
chain: GAPGPGPADASKVVAKGLGLSKAYVGQKSSFTVDCSKAGNNMLLVGVHGPRTPCEEILVKHVGSRLYSVSYLLKDKGEYTLVVKWGDEHIPGSPYRVVVP
B3 was tested, and the “patients with IgA antibody responses >3 SD above HC” value [3] was 15% and the “patients with IgG antibody responses >3 SD above HC” value [3] was 27%.

B4: citrullinated FLNA: recombinant filamin A citrullinated in vitro with rhPAD-4 (protein)
chain: GAPGPGPADASKVVAKGLGLSKAYVGQKSSFTVDCSKAGNNMLLVGVHGPRTPCEEILVKHVGSRLYSVSYLLKDKGEYTLVVKWGDEHIPGSPYRVVVP
In the case of B4, the “IgG antibody responses to citrullinated versus uncitrullinated protein” value [3] is reported as “not significantly different”.
